Assay results taken from patent publication US20230002359A1, “PESTICIDALLY ACTIVE FUSED BICYCLIC HETEROAROMATIC COMPOUNDS” (priority 2019, published 2023).

Assays:
Assay type in all cases: in vivo
[1] = test system: Diabrotica Balteata (Corn Root Worm); experiment: Example B1: Diabrotica balteata (corn root worm), maize sprouts sprayed, L2 larvae; conditions: 96 h, application rate of 200 ppm, 4 days after infestation, L2 larvae, read-out: control in at least one of the two categories (mortality or growth inhibition)
How it was run: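 Spray test: maize sprouts on agar, aqueous dilutions of 10′000 ppm DMSO stock; after drying, 6–10 L2 larvae/well. Read-out at 4 d post-infestation: mortality and growth inhibition vs untreated.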

[2] = test system: Plutella xylostella (Diamond Back Moth); experiment: Example B4: Plutella xylostella (diamond back moth), artificial diet, eggs, 24-well; conditions: 192 h, application rate of 200 ppm, 8 days after infestation, eggs, read-out: control in at least one of the two categories (mortality or growth inhibition)
Method: 24-well microtiter plates with artificial diet were treated with aqueous test solutions prepared from 10′000 ppm DMSO stock solutions by pipetting. After drying, Plutella eggs were pipetted through a plastic stencil onto a gel blotting paper and the plate was closed with it. The samples were assessed for mortality and growth inhibition in comparison to untreated samples 8 days after infestation.

[3] = test system: Spodoptera littoralis (Egyptian Cotton Leaf Worm); experiment: Example B7: Spodoptera littoralis (Egyptian cotton leaf worm), cotton leaf discs sprayed, L1 larvae; conditions: foliar, 72 h, application rate of 200 ppm, 3 days after infestation, L1 larvae, read-out: control in at least one of the three categories (mortality, anti-feedant effect, or growth inhibition)
Method: Cotton leaf discs were placed onto agar in 24-well microtiter plates and sprayed with aqueous test solutions prepared from 10′000 ppm DMSO stock solutions. After drying the leaf discs were infested with five L1 larvae. The samples were assessed for mortality, anti-feeding effect, and growth inhibition in comparison to untreated samples 3 days after infestation. Control of Spodoptera littoralis by a test sample is given when at least one of the categories mortality, anti-feedant effect, and growth inhibition is higher than the untreated sample.

[4] = test system: Chilo suppressalis (Striped Rice Stemborer); experiment: Example B3: Chilo suppressalis (striped rice stemborer), artificial diet, L2 larvae; conditions: 144 h, application rate of 200 ppm, 6 days after infestation, L2 larvae, read-out: control in at least one of the three categories (mortality, anti-feedant effect, or growth inhibition)
How it was run: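 Scoring covers mortality, anti-feedant effect and growth inhibition at 6 days post-infestation, relative to untreated diet, with activity defined as at least one category above untreated. Test solutions were aqueous, made from 10'000 ppm DMSO stocks, and applied to artificial diet before drying and infestation with L2 larvae.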

CC(c1nccnc1-c1ccc(OC(F)F)cn1)N(C)c1ncnc2c(C(F)(F)F)cc(Cl)cc12 (centres unmarked) [P.123, 6-chloro-N-[1-[3-[5-(difluoromethoxy)-2-pyridyl]pyrazin-2-yl]ethyl]-N-methyl-8-(trifluoromethyl)quinazolin-4-amine]
≥ 80%: percent control (mortality or growth inhibition) at 200 ppm [1] | percent control (mortality or growth inhibition) at 200 ppm [2] | percent control (mortality, anti-feedant effect or growth inhibition) at 200 ppm [3] | percent control (mortality, anti-feedant effect or growth inhibition) at 200 ppm [4]

CC(Nc1ncnc2c(C(F)(F)F)cc(Br)cc12)c1nccnc1-c1ccc(C#N)cn1 (centres unmarked) [P.119, 6-[3-[1-[[6-bromo-8-(trifluoromethyl)quinazolin-4-yl]amino]ethyl]pyrazin-2-yl]pyridine-3-carbonitrile]
≥ 80%: percent control (mortality or growth inhibition) at 200 ppm [1] | percent control (mortality or growth inhibition) at 200 ppm [2] | percent control (mortality, anti-feedant effect or growth inhibition) at 200 ppm [3] | percent control (mortality, anti-feedant effect or growth inhibition) at 200 ppm [4]

CC(Nc1ncnc2c(Cl)cc(C(F)(F)F)cc12)c1nccnc1-n1nccn1 (centres unmarked) [P.35, 8-chloro-N-[1-[3-(triazol-2-yl)pyrazin-2-yl]ethyl]-6-(trifluoromethyl)quinazolin-4-amine]
≥ 80%: percent control (mortality or growth inhibition) at 200 ppm [1] | percent control (mortality or growth inhibition) at 200 ppm [2] | percent control (mortality, anti-feedant effect or growth inhibition) at 200 ppm [3] | percent control (mortality, anti-feedant effect or growth inhibition) at 200 ppm [4]

CC(Nc1ncnc2c(Cl)cc(Br)cc12)c1ncnn1-c1ncccn1 (centres unmarked) [P.159, 6-bromo-8-chloro-N-[1-(2-pyrimidin-2-yl-1,2,4-triazol-3-yl)ethyl]quinazolin-4-amine]
≥ 80%: percent control (mortality or growth inhibition) at 200 ppm [1] | percent control (mortality or growth inhibition) at 200 ppm [2] | percent control (mortality, anti-feedant effect or growth inhibition) at 200 ppm [3] | percent control (mortality, anti-feedant effect or growth inhibition) at 200 ppm [4]

CC(c1ncnn1-c1ccc(OC(F)F)cn1)N(C)c1ncnc2c(C(F)(F)F)cc(C(F)(F)F)cc12 (centres unmarked) [P.192]
≥ 80%: percent control (mortality or growth inhibition) at 200 ppm [1] | percent control (mortality or growth inhibition) at 200 ppm [2] | percent control (mortality, anti-feedant effect or growth inhibition) at 200 ppm [3] | percent control (mortality, anti-feedant effect or growth inhibition) at 200 ppm [4]

CC(c1nccnc1-n1nccn1)N(C)c1ncnc2c(Br)cc(Cl)cc12 (centres unmarked) [P.174, 8-bromo-6-chloro-N-methyl-N-[1-[3-(triazol-2-yl)pyrazin-2-yl]ethyl]quinazolin-4-amine]
≥ 80%: percent control (mortality or growth inhibition) at 200 ppm [1] | percent control (mortality or growth inhibition) at 200 ppm [2] | percent control (mortality, anti-feedant effect or growth inhibition) at 200 ppm [3] | percent control (mortality, anti-feedant effect or growth inhibition) at 200 ppm [4]

CC(c1ncnn1-c1ccc(Br)cn1)N(C)c1ncnc2c(C(F)(F)F)cc(Cl)cc12 (centres unmarked) [P.238, N-[1-[2-(5-bromo-2-pyridyl)-1,2,4-triazol-3-yl]ethyl]-6-chloro-N-methyl-8-(trifluoromethyl)quinazolin-4-amine]
≥ 80%: percent control (mortality or growth inhibition) at 200 ppm [1] | percent control (mortality or growth inhibition) at 200 ppm [2] | percent control (mortality, anti-feedant effect or growth inhibition) at 200 ppm [3] | percent control (mortality, anti-feedant effect or growth inhibition) at 200 ppm [4]

CC(c1nccnc1-c1ccc(C#N)cn1)N(C)c1ncnc2c(C(F)(F)F)cc(C(F)(F)F)cc12 (centres unmarked) [P.116, 6-[3-[1-[[6,8-bis(trifluoromethyl)quina-zolin-4-yl]-methyl-amino]ethyl]pyrazin-2-yl]pyridine-3-carbonitrile]
≥ 80%: percent control (mortality or growth inhibition) at 200 ppm [1] | percent control (mortality or growth inhibition) at 200 ppm [2] | percent control (mortality, anti-feedant effect or growth inhibition) at 200 ppm [3] | percent control (mortality, anti-feedant effect or growth inhibition) at 200 ppm [4]

CC(c1ncnn1-c1ccc(Br)cn1)N(C)c1ncnc2c(C(F)(F)F)cc(Br)cc12 (centres unmarked) [P.237, 6-bromo-N-[1-[2-(5-bromo-2-pyridyl)-1,2,4-triazol-3-yl]ethyl]-N-methyl-8-(trifluoromethyl)quinazolin-4-amine]
≥ 80%: percent control (mortality or growth inhibition) at 200 ppm [1] | percent control (mortality or growth inhibition) at 200 ppm [2] | percent control (mortality, anti-feedant effect or growth inhibition) at 200 ppm [3] | percent control (mortality, anti-feedant effect or growth inhibition) at 200 ppm [4]

CC(c1nccnc1-n1nccn1)N(C)c1ncnc2c(C(F)(F)F)cc(Br)cc12 (centres unmarked) [P.105, 6-bromo-N-methyl-N-[1-[3-(triazol-2-yl)pyrazin-2-yl]ethyl]-8-(trifluoromethyl)quinazolin-4-amine]
≥ 80%: percent control (mortality or growth inhibition) at 200 ppm [1] | percent control (mortality or growth inhibition) at 200 ppm [2] | percent control (mortality, anti-feedant effect or growth inhibition) at 200 ppm [3] | percent control (mortality, anti-feedant effect or growth inhibition) at 200 ppm [4]

CC(Nc1ncnc2c(C(F)(F)F)cc(Cl)cc12)c1nccnc1-n1nccn1 (centres unmarked) [P.39, 6-chloro-N-[1-[3-(triazol-2-yl)pyrazin-2-yl]ethyl]-8-(trifluoromethyl)quinazolin-4-amine]
≥ 80%: percent control (mortality or growth inhibition) at 200 ppm [1] | percent control (mortality or growth inhibition) at 200 ppm [2] | percent control (mortality, anti-feedant effect or growth inhibition) at 200 ppm [3] | percent control (mortality, anti-feedant effect or growth inhibition) at 200 ppm [4]

CC(c1ncnn1-c1ccc(F)cn1)N(C)c1ncnc2c(Cl)cc(C(F)(F)F)cc12 (centres unmarked) [P.232, 8-chloro-N-[1-[2-(5-fluoro-2-pyridyl)-1,2,4-triazol-3-yl]ethyl]-N-methyl-6-(trifluoromethyl)quinazolin-4-amine]
≥ 80%: percent control (mortality or growth inhibition) at 200 ppm [1] | percent control (mortality or growth inhibition) at 200 ppm [2] | percent control (mortality, anti-feedant effect or growth inhibition) at 200 ppm [3] | percent control (mortality, anti-feedant effect or growth inhibition) at 200 ppm [4]

CC(c1nccnc1-c1ncccn1)N(C)c1ncnc2c(Br)cc(C(F)(F)F)cc12 (centres unmarked) [P.97, 8-bromo-N-methyl-N-[1-(3-pyrimidin-2-ylpyrazin-2-yl)ethyl]-6-(trifluoromethyl)quinazolin-4-amine]
≥ 80%: percent control (mortality or growth inhibition) at 200 ppm [1] | percent control (mortality or growth inhibition) at 200 ppm [2] | percent control (mortality, anti-feedant effect or growth inhibition) at 200 ppm [3] | percent control (mortality, anti-feedant effect or growth inhibition) at 200 ppm [4]

CC(Nc1ncnc2c(Cl)cc(C(F)(F)F)cc12)c1nccnc1-c1ccc(OC(F)F)cn1 (centres unmarked) [P.113, 8-chloro-N-[1-[3-[5-(difluoromethoxy)-2-pyridyl]pyrazin-2-yl]ethyl]-6-(trifluoromethyl)quinazolin-4-amine]
≥ 80%: percent control (mortality or growth inhibition) at 200 ppm [1] | percent control (mortality or growth inhibition) at 200 ppm [2] | percent control (mortality, anti-feedant effect or growth inhibition) at 200 ppm [3] | percent control (mortality, anti-feedant effect or growth inhibition) at 200 ppm [4]

CC(Nc1ncnc2c(Cl)cc(C(F)(F)F)cc12)c1nccnc1-c1ncccn1 (centres unmarked) [P.101, 8-chloro-N-[1-(3-pyrimidin-2-ylpyrazin-2-yl)ethyl]-6-(trifluoromethyl)quinazolin-4-amine]
≥ 80%: percent control (mortality or growth inhibition) at 200 ppm [1] | percent control (mortality or growth inhibition) at 200 ppm [2] | percent control (mortality, anti-feedant effect or growth inhibition) at 200 ppm [3] | percent control (mortality, anti-feedant effect or growth inhibition) at 200 ppm [4]

CC(Nc1ncnc2c(C(F)(F)F)cc(Cl)cc12)c1ncnn1-c1ccc(OC(F)F)cn1 (centres unmarked) [P.235, 6-chloro-N-[1-[2-[5-(difluoromethoxy)-2-pyridyl]-1,2,4-triazol-3-yl]ethyl]-8-(trifluoromethyl)quinazolin-4-amine]
≥ 80%: percent control (mortality or growth inhibition) at 200 ppm [1] | percent control (mortality or growth inhibition) at 200 ppm [2] | percent control (mortality, anti-feedant effect or growth inhibition) at 200 ppm [3] | percent control (mortality, anti-feedant effect or growth inhibition) at 200 ppm [4]

CC(c1ncnn1-c1ccc(Br)cn1)N(C)c1ncnc2c(Br)cc(C(F)(F)F)cc12 (centres unmarked) [P.239, 8-bromo-N-[1-[2-(5-bromo-2-pyridyl)-1,2,4-triazol-3-yl]ethyl]-N-methyl-6-(trifluoromethyl)quinazolin-4-amine]
≥ 80%: percent control (mortality or growth inhibition) at 200 ppm [1] | percent control (mortality or growth inhibition) at 200 ppm [2] | percent control (mortality, anti-feedant effect or growth inhibition) at 200 ppm [3] | percent control (mortality, anti-feedant effect or growth inhibition) at 200 ppm [4]
